Laboratory results: US11008301B2, “Piperidinone formyl peptide 2 receptor agonists” (BRISTOL-MYERS SQUIBB COMPANY, priority 2017, dated 2021)

Target: human FPR2 (Homo sapiens (Human), UniProt P25090)
Assay: FPR2 cyclic adenosine monophosphate (cAMP) assay
Format: cell-based
Conditions: CHO cells overexpressing human FPR2; cAMP assay; read-out: hFPR2 agonist activity EC50 (hFPR2 Assay)
Protocol: FPR2 and FPR1 Cyclic Adenosine Monophosphate (cAMP) Assays. A mixture of forskolin (5 μM final for FPR2 or 10 μM final for FPR1) and IBMX (200 μM final) were added to 384-well Proxiplates (Perkin-Elmer) pre-dotted with test compounds in DMSO (1% final) at final concentrations in the range of 1.7 nM to 100 μM. Chinese Hamster Ovary cells (CHO) overexpressing human FPR1 or human FPR2 receptors were cultured in F-12 (Ham's) medium supplemented with 10% qualified FBS, 250 μg/ml zeocin and 300 μg/ml hygromycin (Life Technologies). Reactions were initiated by adding 2,000 human FPR2 cells per well or 4,000 human FPR1 cells per well in Dulbecco's PBS (with calcium and magnesium) (Life Technologies) supplemented with 0.1% BSA (Perkin-Elmer). The reaction mixtures were incubated for 30 min at room temperature. The level of intracellular cAMP was determined using the HTRF HiRange cAMP assay reagent kit (Cisbio) according to manufacturer's instruction. Solutions of cryptate conjugated anti-cAMP and d2 flurorophore-labelled cAMP were made in a supplied lysis buffer separately. Upon completion of the reaction, the cells were lysed with equal volume of the d2-cAMP solution and anti-cAMP solution. After a 1-h room temperature incubation, time-resolved fluorescence intensity was measured using the Envision (Perkin-Elmer) at 400 nm excitation and dual emission at 590 nm and 665 nm. A calibration curve was constructed with an external cAMP standard at concentrations ranging from 1 μM to 0.1 pM by plotting the fluorescent intensity ratio from 665 nm emission to the intensity from the 590 nm emission against cAMP concentrations. The potency and activity of a compound to inhibit cAMP production was then determined by fitting to a 4-parametric logistic equation from a plot of cAMP level versus compound concentrations.

Sequence of human FPR2 (P25090 whole entry): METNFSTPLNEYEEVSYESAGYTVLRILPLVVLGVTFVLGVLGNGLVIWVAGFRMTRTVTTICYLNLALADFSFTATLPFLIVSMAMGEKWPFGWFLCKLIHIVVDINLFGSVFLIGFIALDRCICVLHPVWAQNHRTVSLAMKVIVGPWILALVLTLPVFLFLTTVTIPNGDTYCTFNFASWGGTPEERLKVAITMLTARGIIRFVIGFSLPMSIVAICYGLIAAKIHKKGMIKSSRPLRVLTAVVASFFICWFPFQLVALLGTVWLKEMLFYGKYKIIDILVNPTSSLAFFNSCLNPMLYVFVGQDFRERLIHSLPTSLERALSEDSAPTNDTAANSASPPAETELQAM

Row | EC50 [nM] | SMILES
1 | ≤ 10 | O=C(Nc1ccc(C(F)(F)F)cc1)N[C@@H]1CCCN(c2ccc(N3CCCC(C(F)(F)F)C3)cc2)C1=O (some centres unmarked) [Example 72]
2 | ≤ 10 | O=C(Nc1ccc(C(F)(F)F)cc1)N[C@@H]1CCCN(c2ccc(N3CC(O)C(F)C3)cc2)C1=O (some centres unmarked) [Example 74]
3 | 100 to 1000 | COC[C@@H]1CCCN1c1ccc(N2CCC[C@@H](NC(=O)Nc3ccc(C(F)(F)F)cn3)C2=O)cn1 [Example 63]
4 | ≤ 10 | O=C(Nc1ccc(Cl)cc1)N[C@@H]1CCCN(c2ccc(N3CCC(O)(C(F)(F)F)CC3)cc2)C1=O [Example 100]
5 | 10 to 100 | O=C(Nc1ccc(C(F)(F)F)cc1)N[C@@H]1CCCN(c2ccc(N3CC[C@@H](O)C3)nc2)C1=O [Example 55]
6 | 10 to 100 | CC1CCN(c2ccc(N3CCC[C@@H](NC(=O)Nc4ccc(C(F)(F)F)cc4)C3=O)cc2)CC1 [Example 41]
7 | 100 to 1000 | O=C(Nc1ccc(C(F)(F)F)cn1)N[C@@H]1CCCN(c2ccc(N3CCCCC3=O)cc2F)C1=O [Example 51]
8 | ≤ 10 | CC(C)[C@@H]1COCCN1c1ccc(N2CCC[C@@H](NC(=O)Nc3ccc(C(F)(F)F)cc3)C2=O)cc1 [Example 39]
9 | 100 to 1000 | C[C@H]1COCCN1c1ccc(N2CCC[C@@H](NC(=O)Nc3ccc(C(F)(F)F)nc3)C2=O)cc1 [Example 8]
10 | ≤ 10 | O=C(Nc1ccc(C(F)(F)F)cc1)N[C@@H]1CCCN(c2ccc(N3CCC(F)(F)C3)cc2)C1=O [Example 68]
11 | ≤ 10 | CN(C)C1CN(c2ccc(N3CCC[C@@H](NC(=O)Nc4ccc(C(F)(F)F)cc4)C3=O)cc2)CC1F (some centres unmarked) [Example 84]
12 | 10 to 100 | COCC1CCCCN1c1ccc(N2CCC[C@@H](NC(=O)Nc3ccc(C(F)(F)F)nc3)C2=O)cc1 (some centres unmarked) [Example 16]
13 | 100 to 1000 | O=C(Nc1ccc(C(F)(F)F)cc1)N[C@H]1CCCN(c2ccc(N3CCCC(O)C3)cc2)C1=O (some centres unmarked) [Example 32]
14 | 10 to 100 | COC[C@@H]1CCCN1c1ccc(N2CCC[C@@H](NC(=O)Nc3ccc(C(F)(F)F)cc3)C2=O)cc1 [Example 27]
15 | ≤ 10 | CN(C)C1CCN(c2ccc(N3CCC[C@@H](NC(=O)Nc4ccc(Cl)cc4)C3=O)c(F)c2F)C1 (some centres unmarked) [Example 75]
16 | 10 to 100 | CC(C)N1CCN(c2ccc(N3CCC[C@@H](NC(=O)Nc4ccc(C(F)(F)F)cc4)C3=O)cc2)CC1 [Example 33]
17 | ≤ 10 | O=C(Nc1ccc(Cl)cc1F)N[C@@H]1CCCN(c2ccc(N3CC[C@@H](O)C3)nc2)C1=O [Example 106]
18 | 100 to 1000 | O=C(Nc1ccc(C(F)(F)F)nc1)N[C@@H]1CCCN(c2ccc(N3[C@@H]4CC[C@H]3COC4)nc2)C1=O [Example 62]
19 | ≤ 10 | CC1CCCN(c2ccc(N3CCC[C@@H](NC(=O)Nc4ccc(C(F)(F)F)cc4)C3=O)cc2)C1 (some centres unmarked) [Example 38]
20 | 10 to 100 | O=C(Nc1ccc(C(F)(F)F)cc1)N[C@@H]1CCCN(c2ccc(N3CC4(COC4)C3)cc2)C1=O [Example 10]
21 | ≤ 10 | CS(=O)(=O)C1CCN(c2ccc(N3CCC[C@@H](NC(=O)Nc4ccc(Cl)cc4)C3=O)c(F)c2F)C1 (some centres unmarked) [Example 87]

Row | EC50 [nM] | SMILES
22 | 10 to 100 | CC1(C)CCN(c2ccc(N3CCC[C@@H](NC(=O)Nc4ccc(C(F)(F)F)cc4)C3=O)cc2)CC1 [Example 40]
23 | ≤ 10 | O=C(Nc1ccc(C(F)(F)F)cc1)N[C@@H]1CCCN(c2ccc(N3C[C@H]4CC[C@@H](C3)O4)cc2)C1=O [Example 5]
24 | 10 to 100 | COc1ccc(NC(=O)N[C@@H]2CCCN(c3ccc(N4CCOC[C@H]4C)cc3)C2=O)cc1 [Example 36]
25 | 10 to 100 | O=C(Nc1ccc(C(F)(F)F)cc1)N[C@@H]1CCCN(c2ccc(N3CC[C@H](O)C3)cc2)C1=O [Example 3]
26 | 100 to 1000 | O=C(Nc1ccc(C(F)(F)F)nc1)N[C@@H]1CCCN(c2ccc(N3C[C@H]4CC[C@@H](C3)O4)cc2)C1=O [Example 47]
27 | ≤ 10 | COCC1CCCN1c1ccc(N2CCC[C@@H](NC(=O)Nc3ccc(C(F)(F)F)cc3)C2=O)cc1 (some centres unmarked) [Example 66]
28 | ≤ 10 | CS(=O)(=O)C1CCN(c2cc(F)c(N3CCC[C@@H](NC(=O)Nc4ccc(Cl)cc4F)C3=O)c(F)c2)C1 (some centres unmarked) [Example 90]
29 | ≤ 10 | CC1(O)CCN(c2ccc(N3CCC[C@@H](NC(=O)Nc4ccc(Cl)cc4)C3=O)cc2)C1 (some centres unmarked) [Example 94]
30 | 10 to 100 | O=C(Nc1ccc(Cl)nc1)N[C@@H]1CCCN(c2ccc(N3CC[C@@H](O)C3)cc2)C1=O [Example 6]
31 | ≤ 10 | CC1(O)CCCN(c2ccc(N3CCC[C@@H](NC(=O)Nc4ccc(Cl)cc4)C3=O)cc2)C1 (some centres unmarked) [Example 93]
32 | ≤ 10 | CN(C)C1CCN(c2ccc(N3CCC[C@@H](NC(=O)Nc4ccc(Cl)cc4)C3=O)cn2)C1 (some centres unmarked) [Example 103]
33 | ≤ 10 | CN(CC(F)(F)F)C1CCN(c2ccc(N3CCC[C@@H](NC(=O)Nc4ccc(Cl)cc4)C3=O)c(F)c2F)C1 (some centres unmarked) [Example 85]
34 | 10 to 100 | O=C(Nc1ccc(C(F)(F)F)cc1)N[C@@H]1CCCN(c2ccc(N3CCCC(O)C3)nc2)C1=O (some centres unmarked) [Example 60]
35 | ≤ 10 | CC1(F)CCN(c2ccc(N3CCC[C@@H](NC(=O)Nc4ccc(Cl)cc4)C3=O)cc2)CC1 [Example 99]
36 | 100 to 1000 | O=C(Nc1ccc(C(F)(F)F)cc1)N[C@@H]1CCCN(c2ccc(N3CCCC(CO)C3)nc2)C1=O (some centres unmarked) [Example 64]
37 | ≤ 10 | COCC1COCCN1c1ccc(N2CCC[C@@H](NC(=O)Nc3ccc(C(F)(F)F)cc3)C2=O)cc1 (some centres unmarked) [Example 13]
38 | ≤ 10 | O=C(Nc1ccc(C(F)(F)F)cc1)N[C@@H]1CCCN(c2ccc(N3CC[C@@H](O)C3)cc2)C1=O [Example 1, 1-(1-(4-((R)-3-Hydroxypyrrolidin-1-yl)phenyl)-2-oxopiperidin-3-yl)-3-(4-(trifluoromethyl)phenyl)urea]
39 | ≤ 10 | O=C(Nc1ccc(Cl)cc1)N[C@@H]1CCCN(c2ccc(N3CCC(C4CC4)C3)cc2)C1=O (some centres unmarked) [Example 97]
40 | 100 to 1000 | O=C(Nc1ccc(C(F)(F)F)cn1)N[C@@H]1CCCN(c2ccc(N3CCCCC3=O)cc2)C1=O [Example 49]
41 | 10 to 100 | O=C(Nc1ccc(C(F)(F)F)cc1)N[C@@H]1CCCN(c2ccc(N3CCCC(O)C3)cc2)C1=O (some centres unmarked) [Example 31]
42 | 100 to 1000 | C[C@@H]1COCCN1c1ccc(N2CCC[C@@H](NC(=O)Nc3ccc(C(F)(F)F)cn3)C2=O)cc1 [Example 48]

Row | EC50 [nM] | SMILES
43 | ≤ 10 | O=C(Nc1ccc(Cl)cc1F)N[C@@H]1CCCN(c2ccc(N3CCCCC3=O)c(F)c2F)C1=O [Example 80]
44 | ≤ 10 | C[C@@H]1COCCN1c1ccc(N2CCC[C@@H](NC(=O)Nc3ccc(C(F)(F)F)cc3)C2=O)cc1 [Example 35]
45 | ≤ 10 | O=C(Nc1ccc(Cl)cc1)N[C@@H]1CCCN(c2ccc(N3CCCC(CO)C3)cc2)C1=O (some centres unmarked) [Example 78]
46 | 10 to 100 | C[C@H]1COCCN1c1ccc(N2CCC[C@@H](NC(=O)Nc3ccc(C(F)(F)F)cc3)C2=O)cc1 [Example 37]
47 | 10 to 100 | O=C(Nc1ccc(C(F)(F)F)cc1)N[C@@H]1CCCN(c2ccc(N3CCOCC3)cc2F)C1=O [Example 53]
48 | ≤ 10 | O=C(Nc1ccc(Cl)cc1)N[C@@H]1CCCN(c2ccc(N3CCC4(CCCO4)CC3)cc2)C1=O [Example 101]
49 | 100 to 1000 | CC(=O)N1CCN(c2ccc(N3CCC[C@@H](NC(=O)Nc4ccc(C(F)(F)F)cc4)C3=O)cc2)CC1 [Example 29]
50 | 10 to 100 | C[C@@H]1COCCN1c1ccc(N2CCC[C@@H](NC(=O)Nc3ccc(C(F)(F)F)nc3)C2=O)cc1 [Example 7]
51 | ≤ 10 | COC1CCN(c2ccc(N3CCC[C@@H](NC(=O)Nc4ccc(C(F)(F)F)cc4)C3=O)cc2)CC1 [Example 30]
52 | ≤ 10 | O=C(Nc1ccc(Cl)cc1F)N[C@@H]1CCCN(c2ccc(N3CC[C@@H](F)C3)cc2)C1=O [Example 82]
53 | 100 to 1000 | O=C(Nc1ccc(C(F)(F)F)cn1)N[C@@H]1CCCN(c2ccc(N3CC[C@@H](O)C3)cc2)C1=O [Example 28]
54 | ≤ 10 | CN(C)C(=O)C1CCN(c2ccc(N3CCC[C@@H](NC(=O)Nc4ccc(Cl)cc4F)C3=O)cc2)C1 (some centres unmarked) [Example 86]
55 | 10 to 100 | C[C@@H]1CN(c2ccc(N3CCC[C@@H](NC(=O)Nc4ccc(C(F)(F)F)cc4)C3=O)cc2)C[C@H](C)O1 [Example 43]
56 | 10 to 100 | COC1CCN(c2ccc(N3CCC[C@@H](NC(=O)Nc4ccc(C(F)(F)F)cc4)C3=O)cn2)CC1 [Example 58]
57 | 10 to 100 | CCN1CCN(c2ccc(N3CCC[C@@H](NC(=O)Nc4ccc(C(F)(F)F)cc4)C3=O)cc2)CC1 [Example 42]
58 | ≤ 10 | CS(=O)(=O)C1CCN(c2ccc(N3CCC[C@@H](NC(=O)Nc4ccc(Cl)cc4F)C3=O)c(F)c2F)C1 (some centres unmarked) [Example 89]
59 | ≤ 10 | O=C(Nc1ccc(Cl)cc1F)N[C@@H]1CCCN(c2ccc(N3CC[C@@H](F)C3)nc2)C1=O [Example 105]
60 | ≤ 10 | O=C(Nc1ccc(Cl)cc1)N[C@@H]1CCCN(c2ccc(N3CCC4(CC4)C3)cc2)C1=O [Example 96]
61 | 10 to 100 | COC[C@@H]1CCCN1c1ccc(N2CCC[C@@H](NC(=O)Nc3ccc(C(F)(F)F)nc3)C2=O)cc1 [Example 25]
62 | 10 to 100 | O=C(Nc1ccc(C(F)(F)F)cc1)N[C@@H]1CCCN(c2ccc(N3CCCCC3=O)cc2F)C1=O [Example 52]
